Assays:
[1] = Dissolution in ethanol, amorphous vs crystalline form; format: physicochemical; conditions: without stirring
Protocol: The dissolution profile of the substance in amorphous form was also determined, and compared with that of the substance in crystalline form.

[2] = Water solubility in dissolution tester (distilled water, 37° C., 100 rpm, spectrophotometric analysis); format: physicochemical; conditions: 37° C.±0.5° C.
Protocol: Moreover, with regard to water solubility, after conditioning a dissolution tester (Pharma Test Type PTW S III s/n 5390) using distilled water at a temperature of 37° C.±0.5° C. at a speed of 100 rpm, four dissolutions were carried out, in each of which the first three vessels of the dissolution tester were used for the substance in crystalline form and the last three for the substance in amorphous form.
10 ml of the solute were withdrawn from each vessel after 15 minutes of stirring; the withdrawn samples were filtered with 0.45 μm filters and subjected to spectophotometric analysis, repeating the operation after 30 and 60 minutes.

| Compound | dissolution behaviour in ethanol [1] | concentration of dissolved substance relative to that of the substance in amorphous form ([2]; after one hour of dissolution) | dissolved percentage compared with that of the substance in crystalline form [2] |
| --- | --- | --- | --- |
| CO[C@H]1/C=C/O[C@@]2(C)Oc3c(C)c(O)c4c(O)c(c5c(nc6cc(C)ccn65)c4c3C2=O)NC(=O)/C(C)=C\C=C\[C@H](C)[C@H](O)[C@@H](C)[C@@H](O)[C@@H](C)[C@H](OC(C)=O)[C@@H]1C [crystalline form, Rifaximin] | less wettable | about 7% | – |
| CO[C@H]1/C=C/O[C@@]2(C)Oc3c(C)c(O)c4c(O)c(c5c(nc6cc(C)ccn65)c4c3C2=O)NC(=O)/C(C)=C\C=C\[C@H](C)[C@H](O)[C@@H](C)[C@@H](O)[C@@H](C)[C@H](OC(C)=O)[C@@H]1C [amorphous form, Rifaximin] | easily dissolves in ethanol even without stirring | – | one order of magnitude greater |

Source: patent publication US9273063B2, “Method for preparing a rifaximin product” (Salix Pharmaceuticals, Inc., priority 2007, dated 2016)
